This note sets out measurements from patent US20200255828A1, “METHODS AND COMPOSITIONS FOR ALTERING FUNCTION AND STRUCTURE OF CHROMATIN LOOPS AND/OR DOMAINS” (THE BROAD INSTITUTE, INC., priority 2017, published 2020).

Test [1] relates to CTCF. The test can be described thus: ChIP-Seq for CTCF with and without auxin. Format: cell-based, human. As for the experimental part: ChIP-Seq for H3K27Ac, H3K4me1, H3K4me3, H3K36me3, H3K27me3, H3K9me3, H4K16Ac, H4K20me3, H3K79me2, and H2.AZ was performed using a native ChIP-Seq protocol. Chromatin from untreated HCT-116 RAD21-mAC cells or cells treated for 6 hours with 500 uM IAA was digested with Mnase (Sigma) in digestion buffer (50 mM Tris-HCl, pH7.6, 1 mM CaCl2), 0.2% Triton X-100, butyrate 5 mM) for 5′ at 37° C. and dialyzed against RIPA buffer for 2 hrs at 4° C. Five microgram of respective antibody was incubated with 40 μl of Dynabeads Protein A (or G) for 40 min at room temperature. Antibody-bound beads were added to 500 μl of sonicated or Mnase-digested chromatin, incubated at 4° C. overnight, and washed twice with RIPA buffer, twice with RIPA buffer containing 0.3 M NaCl, twice with LiCl buffer (0.25 M LiCl, 0.5% Igepal-630, 0.5% sodium deoxycholate), once with TE (pH 8.0) plus 0.2% Triton X-100, and once with TE (pH 8.0). ChIP DNA was purified by phenol-chloroform extraction followed by ethanol precipitation. Libraries were prepped for Illumina sequencing and 50 bp single-end reads were sequenced on a HiSeq2000 or 2500 (Illumina). Applicants also performed ChIP-Seq for RAD21 and CTCF following the same protocol as above, except that cells were fixed with 1% formaldehyde for 10 minutes at 37° C. and fixation was quenched by the addition of glycine to a final concentration of 125 mM for 10 minutes. The fixed cells were sonicated using a Branson sonifier at amplitude 35%, 12 cycles of 20 seconds of sonication and 30 seconds of pause. Antibody was added to the sonicated chromatin as above and the samples were further processed as above. […]
All ChIP-Seq data was aligned to hg19 with BWA (Li and Durbin, 2010) (Li and Durbin, 2010) (Li and Durbin, 2010), deduplicated using PicardTools, and analyzed with MACS 2.0 (Liu, 2014). […]
Applicants calculated average signal over 5 kb bins across the entire genome and correlated signal between ChIP-Seq experiments before and after auxin treatment for each of CTCF, H3K27me3, H3K9me3, H3K4me1, H3K4me3 and H3K27Ac.

For test [2], the system named is HCT-116 RAD21-mAC cells. Description: In situ Hi-C: contact domains and genome compartmentalization (Arrowhead corner score, eigenvector, sliding correlation score). It is filed as cell-based, human. From the text:
Domains were annotated in both untreated and treated maps using Arrowhead (Durand et al., 2016b; Rao et al., 2014). Domains were called at 5 kb and 10 kb resolutions using default parameters and merged (retaining the 5 kb domain annotation for any pair of domains annotated in both the 5 kb and 10 kb annotations). Applicants annotated 9,845 domains in our untreated maps and 2,090 domains in our treated maps.
The most common method used for classifying Hi-C patterns is the principal component (PC) approach, which Applicants introduced in (Lieberman-Aiden et al., 2009). In this approach, each intrachromosomal contact matrix is converted to an observed/expected matrix, and the first principal component of this matrix is used to bifurcate the data into two clusters.
Applicants first calculated the first three principal components of the 25-kb resolution observed/expected matrix for each chromosome (constructed using Juicer) using scikit learn's RandomizedPCA function. Applicants chose the principal component most correlated with GC content and assigned sign such that the vector was positively correlated with the GC content vector. Applicants then calculated the correlation of the eigenvector for each chromosome between untreated and treated maps. The mean correlation was 0.968.
To identify transitions in compartment state at higher resolution, Applicants used a combination of techniques. First, Applicants calculated an edge score using an algorithm similar to Canny edge detection. For every 25 kb locus in the genome, Applicants looked at the corresponding column of the 25 kb log 2(observed/expected) matrix. For every pixel (i,j) in column j, Applicants calculated a gradient=[i,j:j+3]−[i,j−4,j−1]. Applicants then searched for stretches of at least 7 pixels in the column with a gradient x such that abs(x) was greater than 0.5. […] Finally, Applicants summed the number of pixels in a column belonging to an edge to calculate the edge score for a locus. Applicants then called local peaks in this track which could correspond to compartment state transitions since a compartment state transition at locus I will create an edge between locus i−1 and i.
As described in Section V.a.3 of Rao et al., 2014, this is akin to measures in finance that correlate returns of prices to identify similarities between stocks. To calculate this sliding derivative correlation score, Applicants calculated the gradient in the log 2(observed/expected) matrix over every boundary called in our edge score track. More specifically, for every locus i, and all boundaries j in boundary set J that were within 15 Mb of i, Applicants calculated the difference of mean ([j:j+5,i]) and mean ([j−6:j−1,i]). Applicants then calculated the Spearman correlation coefficient of these two vectors (one vector for the gradients at all boundaries j in J for the pixels upstream of i, and one vector for the pixels downstream of i). Applicants excluded the derivative signal at pixels not located at compartment state transitions as defined by the edge score to reduce noise, reasoning that pixels inside compartment intervals were unlikely to contribute meaningful rises/falls in contact probability. Similarly, Applicants only included pixels within 15 mb of i to reduce the noise arising from sparsity far off the diagonal.
Applicants then identified compartment boundaries by calling local peaks in the edge score track and local valleys in the sliding derivative correlation score track and merging the two peak call lists.
To assess the presence and strength of contact domains after auxin treatment, Applicants used the Arrowhead algorithm (Durand et al., 2016b; Rao et al., 2014). The Arrowhead algorithm calculates a corner score for every pixel, where higher corner score values represent a higher likelihood that a pixel is at the corner of a domain (see Section IV. a.3 of the Extended Experimental Procedures of Rao et al., 2014). […]

For `O=C(O)Cc1c[nH]c2ccccc12` [auxin, indole-3-acetic acid], in test [1], the “CTCF peaks called after auxin treatment also called before auxin treatment” value is given as 96%. For the same molecule, the “Spearman's r of ChIP-Seq signal before vs after auxin treatment, CTCF” value in test [1] (5 kb bins genome-wide) amounted to 0.80. In addition, the “average enrichment at all CTCF binding sites called by ENCODE, treated cells” value in test [1] (untreated 10.89) is recorded as 8.93. Besides, the “dip in sliding correlation in treated cells, H3K27me3 transitions spanned by loop domains” value in test [2] (209 transitions, untreated 0.01 increase) stood at 0.03. Also, in test [2] (264 transitions, untreated 0.02), the “dip in sliding correlation in treated cells, H3K27Ac transitions spanned by loop domains” value worked out at 0.19. Moreover, the “dip in sliding correlation in treated cells, H3K27Ac transitions at loop domain boundaries” value in test [2] (307 transitions, untreated 0.41) is listed as 0.49. Besides, the “decrease in sliding correlation score in treated cells, compartment boundaries contained within loop domains” value in test [2] (349 boundaries, untreated 0.10) turned out to be 0.31. Also, in test [2] (381 transitions, untreated 0.10), the “decrease in sliding correlation score in treated cells, H3K27Ac transitions at loop anchors” value was determined as 0.26. Further, the “dip in sliding correlation in treated cells, H3K27me3 transitions at loop domain boundaries” value in test [2] (384 transitions, untreated 0.29) is 0.33. Also, the “decrease in sliding correlation score in treated cells, compartment boundaries at loop domain anchors” value in test [2] (389 boundaries, untreated 0.35) came to 0.53. In test [2] (391 transitions, untreated 0.27), the “decrease in sliding correlation score in treated cells, H3K27me3 transitions spanned by loops” value was 0.31. Besides, the “decrease in sliding correlation score in treated cells, H3K27Ac transitions spanned by loops” value in test [2] (426 transitions, untreated 0.41) was 0.50. Further, the “decrease in sliding correlation score in treated cells, H3K27me3 transitions at loop anchors” value in test [2] (469 transitions, untreated 0.03) was determined as 0.12. Also, the “mean Pearson's r of Hi-C correlation map eigenvectors, untreated vs auxin treated” value in test [2] (across all chromosomes) is 0.968.
